Data from patent US20050080055A1, “Method of treating breast cancer with androgen receptor antagonists” (priority 2003, published 2005).

Columns and labels:
Assay in all cases: Sulforhodamine B (SRB) cytotoxicity assay
Assay type in all cases: cell-based
HT-29 = conditions: Homo sapiens
MCF-7 = conditions: Homo sapiens
Procedure: (§1) The SRB Assay was used to determine cell number during cytotoxocity experiments. The following protocol was used: • 1. Cells were detached with 0.25% trypsin. • 2. Experimental cultures were cultured in 96-well microtiter plates (200 uL growth medium per well; 1,000-200,000 cells per well). • 3. Cultures were fixed with 50 uL 50% TCA (4° C.). (see cell fixation protocol for details). • 4. Fixed cells were stained with 50 uL 0.4% (wt/vol) SRB in 1% acetic acid for 10 minutes. • 5. SRB was removed and the cultures were quickly* rinsed 5 times with 1% acetic acid to remove unbound dye.** * quickly performing rinsing process is to prevent desorption of protein-bound SRB ** completely remove residual wash solution by sharply flicking plates over sink. • 6. Cultures were air-dried overnight until there is no visible moisture. • 7. The cellular protein-bound SRB was dissolved with 200 uL unbuffered Tris base (10 mM, pH 10.5) for 30 minutes on a rocking platform shaker. • 8. Absorbance was read at 540 nm. Fixation of Cells Attached to the Plastic Substratum
The following protocol was used for fixing cells: • a. 50 uL of 50% TCA (4° C.) were gently layered on the top of growth medium in each well to make a final TCA concentration of 10%. • b. Cultures were incubated at 4° C. for 1 hour. • c. […]

TSU = conditions: Homo sapiens, 96 h; drug incubation time 4 days
Procedure: (§2) PPC-1, LNCaP, TSU, PC-3, and DU145 were grown in PRMI-1640 medium containing 2 mM L-glutamine supplemented with 10% fetal bovine serum (FBS). Cells were maintained in a 5% CO2/95% air humidified atmosphere at 37° C.
as §1
(§3) The following protocol was used for fixing cells: • a. 50 uL of 50% TCA (4° C.) were gently layered on the top of growth medium in each well to make a final TCA concentration of 10%. • b. Cultures were incubated at 4° C. for 1 hour. • c. Cultures were washed 5 times with tap water to remove TCA, growth medium, low-molecular-weight metabolites, and serum protein. • d. Plates were air-dried until there was no visible moisture.
(§4) The IC50s of I-31, I-29, S-NTBA and Compound V in different prostate cancer cell lines (DU 145, PC-3, TSU, PPC-l and LNCaP), in a breast cancer cell line (MCF-7), in other cancer cell lines ([…]) and in a control cell line (CV-1) after 1 and 4 days of incubation with the drug, are shown in Tables 2A and B.

DU 145 = conditions: Homo sapiens
Procedure: as §2, §1, §3, §4

PPC-1 = conditions: Homo sapiens
Procedure: as §2, §1, §3, §4

LNCaP = conditions: Homo sapiens
Procedure: as §2, §1, §3, §4

PC-3 = conditions: Homo sapiens
Procedure: as §2, §1, §3, §4

TCCSUP = conditions: Homo sapiens, TCC-SUP
[1] = 24 h, drug incubation time 1 day
[2] = 96 h, drug incubation time 4 days

`C[C@@](O)(CBr)C(=O)Nc1ccc([N+](=O)[O-])c(C(F)(F)F)c1` [S-NTBA] was tested. Which IC50 (HT-29; HT-29, 24 h, drug incubation time 1 day) did it give?
The IC50 was 19.8 ± 1 µM.

And the IC50 (HT-29; HT-29, 96 h, drug incubation time 4 days)?
Its IC50 is 10.8 µM.

And the IC50 (MCF-7; MCF7, 24 h, drug incubation time 1 day)?
Its IC50 is 3.3 ± 0.6 µM.

And the IC50 (MCF-7; MCF7, 96 h, drug incubation time 4 days)?
Its IC50 is 3.3 ± 0.6 µM.

What about the IC50 (TSU) of the same compound?
The IC50 was 2.9 µM.

What about the IC50 (DU 145; DU-145, 24 h, drug incubation time 1 day) of the same compound?
The IC50 was 5.5 ± 0.6 µM.

And the IC50 (DU 145; DU-145, 96 h, drug incubation time 4 days)?
The IC50 was 4.6 µM.

And the IC50 (PPC-1; PPC-1, 24 h, drug incubation time 1 day)?
Its IC50 is 1.7 ± 0.2 µM.

What about the IC50 (PPC-1; PPC-1, 96 h, drug incubation time 4 days) of the same compound?
Its IC50 is 2.7 µM.

What about the IC50 (LNCaP; [1]) of the same compound?
The IC50 was 1.6 ± 0.5 µM.

And the IC50 (LNCaP; [2])?
The IC50 was 1.8 µM.

And the IC50 (PC-3; PC-3, 24 h, drug incubation time 1 day)?
Its IC50 is 7.9 ± 0.7 µM.

And the IC50 (PC-3; PC-3, 96 h, drug incubation time 4 days)?
Its IC50 is 3.7 µM.

And the IC50 (TCCSUP; [1])?
The IC50 was 9.5 ± 3.6 µM.

And the IC50 (TCCSUP; [2])?
Its IC50 is 4.6 µM.
